# Legend:
# BRAF V660E = BRAF V660E (Homo sapiens, UniProt P15056, V600E); assay: KD BRAF V660E (Table 1; no method described); type: binding
# BRAF = BRAF (Homo sapiens, UniProt P15056); assay: KD BRAF (Table 1; no method described); type: binding
# [1] = tested on: A375 cells (V600E mutated BRAF), ERK phospho-T202/Y204; assay: HTRF assay for P-ERK determination in A375 cells (BRAF inhibition); type: cell-based; settings: Homo sapiens, A-375, 1 hour drug incubation, DMSO = 100%, 10 μM Dabrafenib = 0%, top concentration 10 μM, read-out: P-ERK_A375: IC50
# From the text: (§1) A375 is a cellular cancer model expressing V600E mutated BRAF and HCT116 a cellular cancer model expressing WT BRAF. First generation BRAF inhibitors such as e.g. dabrafenib induce a paradox effect on tumour cells in that they inhibit the growth of V600E mutated BRAF cells (such as e.g. A375), while they activate growth in WT BRAF cells (such as e.g. HCT 116). ERK 1,2 phosphorylation (terminal member of the phosphorylation cascade of the MAPK pathway) is hereafter reported as main readout for the activation status of the MAPK pathway. DMEM no-phenol red medium supplemented with L-glutamine was purchased from (Thermo Fisher Scientific). Fetal bovine serum (FBS) was purchased from VWR. Advanced ERK phospho-T202/Y204 kit—10,000 tests was purchased from Cisbio cat #64AERPEH. A375 (catalog #CRL-1619) and HCT116 (catalog #CCL-247) cells were originally obtained from American type Culture Collection (ATCC) and banked by the Roche repository. 384-Well microplates ultized were purchased from Greiner Bio-One, 384-well, (With Lid, HiBase, Low volume cat 784-080).
# (§2) HTRF Assay for P-ERK Determination in A375 or HCT116 Cells
# (§3) Prior to the assay, A375 and HCT116 cell lines are maintained in DMEM no-phenol red medium supplemented with 10% fetal bovine serum (FBS). Following compound treatment, P-ERK levels are determined by measuring FRET fluorescence signal induced by selective binding of two antibodies provided in the mentioned kit (Cisbio cat #64AERPEH) on ERK protein when phosphorylated at Thr202/Tyr204. Briefly, 8000 cells/well in 12 μl media/well are plated in the 384-well plate and left overnight in the incubator (at 37° C. with 5% CO2-humidified atmosphere), the following day the plate is treated in duplicate with test compounds, dabrafenib and PLX8394 (the latter two as controls) at the following final drug concentrations: 10 μM, 3 μM, 1 μM, 0.3 μM, 0.1 μM, 0.03 μM, 0.01 μM, 0.003 μM and 0.001 μM. All wells are subjected to DMSO normalization and drug incubation occurs for 1 hour. Then, 4 μl of a 4× lysis buffer supplied with the kit are added to the wells, the plate is then centrifuged for 30 second (3000 rpm) and incubated on a plate shaker for 1 h at rt.
# (§4) At the end of the incubation 4 μl/well of advanced P-ERK antibody solution (prepared according to manufacturer's instruction) followed by 4 μl/well of criptate P-ERK antibody solution (prepared according to manufacturer's instruction) (Cisbio cat #64AERPEH) are added to test wells.
# (§5) In order to allow proper data normalization, control wells non drug treated reported in the following table are always included in each plate (according to manufacturer's instruction):
# (§6) The plate is then centrifuged at 3000 rpm for 30 seconds, sealed to prevent evaporation and incubated overnight in the dark at room temperature. The plate is then analyzed and fluorescence emission value collected through a Pherastast FSX (BMG Labtech) apparatus at […]. The obtained fluorescence values are processed according to the formula Ratio=[…]*10000 then the average of the ratio on the blank is subtracted to all values.
# Data are normalized in the case of A375 cells (BRAF inhibition) considering the average of the ratio (blank subtracted) derived by DMSO only treated cells as 100% and by considering the average of the ratio (blank subtracted) derived by 10 μM Dabrafenib treated cells as 0%. Mean of the normalized points are fitted with sigmoidal curve and IC50 values are determined.
# [2] = tested on: HCT116 cells (WT BRAF), ERK phospho-T202/Y204; assay: HTRF assay for P-ERK determination in HCT116 cells (BRAF activation, paradox); type: cell-based; settings: for EC50: Homo sapiens, HCT-116, HCT116 cells, 1 hour drug incubation, activation relative to maximum Dabrafenib-mediated activation (100%), top concentration 10 μM, read-out: P-ERK_HCT-116: EC50—50PCT; for Fold Selectivity HCT-116 EC50-50/ A375: ratio of P-ERK HCT-116 EC50-50PCT to P-ERK A375 IC50
# From the text: as §1, §2, §3, §4, §5, §6
# Data are normalized in the case of HCT116 cells (BRAF activation) considering the average of the ratio (blank subtracted) derived by DMSO only treated cells as 0% and by considering the average of the ratio (blank subtracted) derived by Dabrafenib treated cells at the concentration which provides the highest signal as 100%. Individual points are fitted with either sigmoidal or bell shape curves, the percentage of activation compared to maximum Dabrafenib-mediated activation is determined.
# Sequence of BRAF V660E (P15056 2-766 V600E): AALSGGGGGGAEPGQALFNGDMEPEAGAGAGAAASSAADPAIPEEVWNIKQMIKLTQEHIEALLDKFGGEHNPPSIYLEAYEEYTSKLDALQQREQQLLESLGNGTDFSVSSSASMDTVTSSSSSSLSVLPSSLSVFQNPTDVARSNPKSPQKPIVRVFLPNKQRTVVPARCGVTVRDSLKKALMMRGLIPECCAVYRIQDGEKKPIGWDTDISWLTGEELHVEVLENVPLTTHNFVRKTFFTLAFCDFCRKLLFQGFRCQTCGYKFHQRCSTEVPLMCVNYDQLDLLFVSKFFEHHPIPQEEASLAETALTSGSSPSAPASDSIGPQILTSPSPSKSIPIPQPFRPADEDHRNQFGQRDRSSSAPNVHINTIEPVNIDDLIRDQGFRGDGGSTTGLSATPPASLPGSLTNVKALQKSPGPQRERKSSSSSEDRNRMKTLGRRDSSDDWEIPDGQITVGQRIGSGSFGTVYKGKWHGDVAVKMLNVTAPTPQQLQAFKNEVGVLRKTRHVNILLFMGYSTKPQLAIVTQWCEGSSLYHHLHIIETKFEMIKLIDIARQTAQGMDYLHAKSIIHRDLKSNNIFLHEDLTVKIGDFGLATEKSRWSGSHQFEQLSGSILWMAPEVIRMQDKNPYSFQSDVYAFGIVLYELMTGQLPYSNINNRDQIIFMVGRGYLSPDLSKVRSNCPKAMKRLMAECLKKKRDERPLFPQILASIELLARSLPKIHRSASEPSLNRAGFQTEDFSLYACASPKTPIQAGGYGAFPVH
# Sequence of BRAF (P15056 whole entry): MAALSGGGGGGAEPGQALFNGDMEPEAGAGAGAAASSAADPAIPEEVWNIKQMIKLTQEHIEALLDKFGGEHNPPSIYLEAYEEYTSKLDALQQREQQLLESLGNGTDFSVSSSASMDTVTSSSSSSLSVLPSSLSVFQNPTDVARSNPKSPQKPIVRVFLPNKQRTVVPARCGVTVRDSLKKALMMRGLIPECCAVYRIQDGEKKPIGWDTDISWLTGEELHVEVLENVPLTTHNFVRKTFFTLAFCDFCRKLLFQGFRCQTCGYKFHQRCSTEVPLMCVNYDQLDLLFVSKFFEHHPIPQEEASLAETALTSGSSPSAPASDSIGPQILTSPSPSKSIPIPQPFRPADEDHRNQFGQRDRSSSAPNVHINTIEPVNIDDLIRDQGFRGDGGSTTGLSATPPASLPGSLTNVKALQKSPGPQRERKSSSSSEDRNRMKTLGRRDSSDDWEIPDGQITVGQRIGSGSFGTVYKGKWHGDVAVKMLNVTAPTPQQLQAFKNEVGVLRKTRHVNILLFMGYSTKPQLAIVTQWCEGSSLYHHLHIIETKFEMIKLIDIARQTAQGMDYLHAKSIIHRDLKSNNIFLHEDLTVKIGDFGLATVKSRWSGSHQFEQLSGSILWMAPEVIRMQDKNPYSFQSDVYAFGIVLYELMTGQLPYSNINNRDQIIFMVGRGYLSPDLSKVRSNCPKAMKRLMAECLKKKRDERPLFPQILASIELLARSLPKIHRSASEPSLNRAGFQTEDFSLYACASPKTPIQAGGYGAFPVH
Kd (BRAF V660E) [nM],Kd (BRAF) [nM],IC50 [1] [nM],EC50 [2] [nM],Fold Selectivity HCT-116 EC50-50/ A375 [2],SMILES
27.5,8.2,126,8870,70.7,"CC(=O)N[C@H]1CC[C@H](Nc2ncc3cc(-c4c(F)ccc(NS(=O)(=O)N5CC[C@@H](F)C5)c4F)c(=O)n(C)c3n2)C1 [Example 24, N-[(1S,3S)-3-[[6-[2,6-difluoro-3-[[(3R)-3-fluoropyrrolidin-1-yl]sulfonylamino]phenyl]-8-methyl-7-oxopyrido[2,3-d]pyrimidin-2-yl]amino]cyclopentyl]acetamide]"
26.8,12.2,44,3180,72.3,"CC(=O)NCCCCCNc1ncc2cc(-c3c(F)ccc(NS(=O)(=O)N4CC[C@@H](F)C4)c3F)c(=O)n(C)c2n1 [Example 25, N-[5-[[6-[2,6-difluoro-3-[[(3R)-3-fluoropyrrolidin-1-yl]sulfonylamino]phenyl]-8-methyl-7-oxopyrido[2,3-d]pyrimidin-2-yl]amino]pentyl]acetamide]"
27.5,9.4,271,≥ 10000,>36.9,"CC(=O)N1CCC(O)(CCNc2ncc3cc(-c4c(F)ccc(NS(=O)(=O)N5CC[C@@H](F)C5)c4F)c(=O)n(C)c3n2)CC1 [Example 26, (3R)-N-[3-[2-[2-(1-acetyl-4-hydroxypiperidin-4-yl)ethylamino]-8-methyl-7-oxopyrido[2,3-d]pyrimidin-6-yl]-2,4-difluorophenyl]-3-fluoropyrrolidine-1-sulfonamide]"
41.9,9.6,54.8,1830,33.4,"CC(=O)N(C)CCCNc1ncc2cc(-c3c(F)ccc(NS(=O)(=O)N4CC[C@@H](F)C4)c3F)c(=O)n(C)c2n1 [Example 27, N-[3-[[6-[2,6-difluoro-3-[[(3R)-3-fluoropyrrolidin-1-yl]sulfonylamino]phenyl]-8-methyl-7-oxopyrido[2,3-d]pyrimidin-2-yl]amino]propyl]-N-methylacetamide]"
53,14.7,33.4,1370,40.9,"CC(=O)N1CCC(CCCNc2ncc3cc(-c4c(F)ccc(NS(=O)(=O)N5CC[C@@H](F)C5)c4F)c(=O)n(C)c3n2)CC1 [Example 28, (3R)-N-[3-[2-[3-(1-acetylpiperidin-4-yl)propylamino]-8-methyl-7-oxopyrido[2,3-d]pyrimidin-6-yl]-2,4-difluorophenyl]-3-fluoropyrrolidine-1-sulfonamide]"
60.1,20.1,375,≥ 10000,>26.7,"CC(=O)NCCOCCNc1ncc2cc(-c3c(F)ccc(NS(=O)(=O)N4CC[C@@H](F)C4)c3F)c(=O)n(C)c2n1 [Example 29, N-[2-[2-[[6-[2,6-difluoro-3-[[(3R)-3-fluoropyrrolidin-1-yl]sulfonylamino]phenyl]-8-methyl-7-oxopyrido[2,3-d]pyrimidin-2-yl]amino]ethoxy]ethyl]acetamide]"
159,72.3,287,5700,19.8,"CCN(C)S(=O)(=O)Nc1ccc(F)c(-c2cc3cnc(NCCCN(C)C(C)=O)nc3n(C)c2=O)c1F [Example 30, N-[3-[[6-[3-[[ethyl(methyl)sulfamoyl]amino]-2,6-difluorophenyl]-8-methyl-7-oxopyrido[2,3-d]pyrimidin-2-yl]amino]propyl]-N-methylacetamide]"
52.2,21,79.8,6400,80.2,"CC(=O)N1CCN(CCNc2ncc3cc(-c4c(F)ccc(NS(=O)(=O)N5CC[C@@H](F)C5)c4F)c(=O)n(C)c3n2)CC1 [Example 31, (3R)-N-[3-[2-[2-(4-acetylpiperazin-1-yl)ethylamino]-8-methyl-7-oxopyrido[2,3-d]pyrimidin-6-yl]-2,4-difluorophenyl]-3-fluoropyrrolidine-1-sulfonamide]"
